Article PMC8850458, “The AUTOTAC chemical biology platform for targeted protein degradation via the autophagy-lysosome system” (Nature Communications, 2022)

Tests used:
tauP301L = tauP301L (Homo sapiens, UniProt P10636, P618L); test: In vitro pulldown assay of biotinylated PBA; assay type: binding; details: tauP301L stably expressed in SH-SY5Y cells
Method: A set of synthetic 12-mer peptides corresponding to the N-terminal sequences of the V-BiP (V[19]-[…]-biotin) and V-RGS4 (V^2-[…]-biotin) was C-terminally biotin-conjugated. Alternatively, biotinylated versions of YOK-1304, YT-8-8, YTK-1105, YOK-2204, and PBA were synthesized. To cross-link the above peptides with resin beads, biotin-conjugated peptides, and small molecule were mixed with high-capacity streptavidin agarose resin (Thermo Fisher Scientific) at a ratio of 0.5 mg of peptide per 1 mL of settled resin and incubated on a rotator at 4 °C overnight. After washing five times with PBS, the peptide/small molecule-bead conjugates were diluted with PBS at a 1:1 ratio. To prepare protein extracts, cells were collected by centrifugation and lysed by freezing and thawing at least 10 times in hypotonic buffer [10 mM KCl, 1.5 mM MgCl2, and 10 mM HEPES (pH 7.9)] with a protease inhibitor mix (Sigma). After centrifugation at 15,000 rpm 4 °C for 15 min, proteins were quantified using a BCA protein assay kit (Thermo Fisher Scientific). Total protein (200 μg) diluted in 300 μL of binding buffer [0.05% Tween-20, 10% glycerol, 0.2 M KCl, and 20 mM HEPES (pH 7.9)] were mixed with 50 μL of peptide/small molecule-bead resin and incubated at 4 °C for 2 h on a rotator. The protein-bound beads were collected by centrifugation at 2400 × g for 3 min and washed five times with binding buffer. […]

Ub-conjugated aggregates = test: WB autophagic flux of Ub-conjugated aggregates in HEK293T cells under proteasomal inhibition; assay type: cell-based
Method: Fig. 4 Targeted autophagic delivery and degradation of misfolded protein cargoes using AUTOTACs with aggregate-binding warhead. a A model illustrating the mode of action of aggregate-targeting AUTOTAC. b Chemical structures of PBA-1105, PBA-1106, Anle138b-F105 and PBA-1105b. c In vitro p62 oligomerization assay in HEK293T cells incubated with the indicated compounds in (b). d WB in HEK293T cells treated with MG132 (1 μM, 24 h), HCQ (10 μM, 24 h), PBA-1105, YTK-1105, and PBA (1 μM, 24 h). e Identical to (d), but with Anle-F105. f ICC of HeLa cells treated with HCQ (10 μM, 24 h), MG132 (2 μM, 18 h) or both in the presence of PBA-1106, YOK-1106 or PBA (1 μM, 24 h). Scale bar, 10 μm. g Quantification of (f) (n = 3, 50 cells). h ICC of HeLa cells treated with Anle138b-F105 (1 μM, 24 h). Scale bar, 10 μm. i Quantification of (h) (n = 3, 50 cells). When indicated, n = 3 biologically independent experiments each counting 50 cells. Data are presented as mean values ± SD where relevant. P-values (from a two-sided unpaired t test): ***P < 7.66E−05. Source data are provided with this paper.
Adherent cells were washed with phosphate-buffered saline (PBS) and cell pellets were lysed in SDS-based sample buffer (277.8 mM Tris-HCI, pH 6.8, 4.4% LDS, 44.4% (v/v) glycerol) containing beta-mercaptoethanol. […] Densitometry of developed bands was measured and analyzed with ImageJ (NIH, Bethesda).

Sequence of tauP301L (P10636 1-441 isoform P10636-8 P301L): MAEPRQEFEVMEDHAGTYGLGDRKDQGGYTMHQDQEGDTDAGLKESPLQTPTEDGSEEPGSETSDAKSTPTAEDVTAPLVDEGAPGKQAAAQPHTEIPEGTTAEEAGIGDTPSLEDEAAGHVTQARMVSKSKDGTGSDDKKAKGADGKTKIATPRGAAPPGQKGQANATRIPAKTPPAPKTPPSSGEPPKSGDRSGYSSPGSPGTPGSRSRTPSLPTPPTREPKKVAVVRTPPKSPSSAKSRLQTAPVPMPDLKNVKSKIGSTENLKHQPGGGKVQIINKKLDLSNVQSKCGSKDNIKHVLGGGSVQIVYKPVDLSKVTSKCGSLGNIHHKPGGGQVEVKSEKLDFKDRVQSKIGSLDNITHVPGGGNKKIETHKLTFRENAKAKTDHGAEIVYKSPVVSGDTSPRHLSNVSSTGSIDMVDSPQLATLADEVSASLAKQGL

SMILES	binding of tauP301L in pulldown (tauP301L)	autophagic flux index of Ub-conjugated aggregates (Ub-conjugated aggregates; 1 μM 24 h, MG132 1 μM, HCQ 10 μM, control index 1)	duration of sustained autophagic flux of Ub-conjugated aggregates (Ub-conjugated aggregates; 1 μM, MG132)
O=C(O)CCCc1ccccc1 [4-PBA, 4-phenylbutyric acid]	bound		
O=C(CCCc1ccccc1)NCCOCCOCCOCCNCc1ccc(OCc2ccccc2)c(OCc2ccccc2)c1 [PBA-1105]		2.2	at least 48 h
